# Data reported in patent publication US20250271439A1, “PROTEOMIC SIGNATURE OF PLASMA EXTRACELLULAR VESICLES CLASSIFIES RESPONSE TO DOXORUBICIN AND CANCER” (Washington University, priority 2022, published 2025).
# Columns and labels:
# sarcoma patients = assay: Tumor response to doxorubicin monotherapy assessed by RECIST version 1.1 (SARC021 trial); type: in vivo, human; conditions: two cycles of 75 mg/m^2 doxorubicin, 6 weeks
# Experimental: Plasma was acquired from a cohort of 40 sarcoma patients on the doxorubicin monotherapy control arm of the international, open-label, prospective, randomized, phase 3, multicenter SARC021 trial (TH CR-406)^16. SARC021 was conducted at 81 academic or community investigational sites across 13 countries, and one arm of the trial treated patients with doxorubicin alone, the standard of care. Samples were obtained from 8 different sarcoma subtypes in the cohort, including angiosarcoma (AS), epitheloid sarcoma (EPI), leiomyosarcoma (LMS), liposarcoma (LS), myxofibrosarcoma (MFS), malignant peripheral nerve sheath tumor (MPNST), rhabdomyosarcoma (PMRMS), and undifferentiated pleomorphic sarcoma (UPS). The number of patients per sarcoma subtype ranged from 1 to 13 (Table 1).
# Plasma for the sarcoma cohort was acquired prior to treatment with two cycles of 75 mg/m^2 doxorubicin, and just prior to cycle 3, for a total treatment time of 6 weeks (FIG. 1A). […]
# Doxorubicin treatment and plasma collection: Plasma was obtained from anonymized sarcoma patients on the TH CR-406/SARC021 clinical trial, registered with ClinicalTrials.gov as NCT01440088 and entitled “A Trial of TH-302 in Combination With Doxorubicin Versus Doxorubicin Alone to Treat Patients With Locally Advanced Unresectable or Metastatic Soft Tissue Sarcoma”^84. […] Tumor response was assessed at the end of cycle 2 using RECIST version 1.1^18. […]
# plasma EV proteome = assay: Label free quantitative proteomics of plasma EVs before versus after doxorubicin treatment; type: in vivo, human; conditions: SARC021 sarcoma cohort; also considering the patient's treatment sensitivity; FIG. 5A
smiles,measurement,setting,value
COc1cccc2c1C(=O)c1c(O)c3c(c(O)c1C2=O)C[C@@](O)(C(=O)CO)C[C@@H]3O[C@H]1C[C@H](N)[C@H](O)[C@H](C)O1 [doxorubicin],sarcoma patients considered treatment resistant,sarcoma patients; cohort of 40 sarcoma patients,37.5%
same,number of sarcoma patients considered treatment resistant,sarcoma patients; of 40 sarcoma patients,15
same,"change in EV protein abundance, plasma samples collected before and after treatment",plasma EV proteome,no statistically significant change
